Test results as given in ChEMBL document CHEMBL1157512, “Anti-HIV-1 protease activity of lanostane triterpenes from the vietnamese mushroom Ganoderma colossum” (J Nat Prod, 2008).

Biological target: Protease (Human immunodeficiency virus 1, UniProt Q9YQ12)
Assay: Inhibition of recombinant HIV1 protease

Chain of Protease (Q9YQ12 whole entry): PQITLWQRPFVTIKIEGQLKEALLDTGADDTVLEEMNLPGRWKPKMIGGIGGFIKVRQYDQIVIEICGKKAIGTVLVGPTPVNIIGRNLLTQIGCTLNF

Row | SMILES | IC50
1 | CC(=O)O[C@@H]1C[C@H]([C@H](C)[C@H]2CC=C(C)C(=O)O2)[C@@]2(C)CCC3=C(CC[C@]4(O)C(=C3)C=CC(=O)OC4(C)C)[C@]12C [COLOSSOLACTONE G] | 9.28 µM
2 | COC(=O)CC[C@]1(COC(C)=O)C2=CC[C@]3(C)[C@@H]([C@H](C)[C@@H](C/C=C(/C)C(=O)O)OC(C)=O)CC[C@@]3(C)C2=CC[C@H]1C(C)(C)O [COLOSSOLACTONE VI] | > 162 µM
3 | CC(=O)O[C@@H]1C[C@H]([C@H](C)[C@H]2CC=C(C)C(=O)O2)[C@@]2(C)CCC3=C(CC[C@@H]4C(=C3)C=CC(=O)OC4(C)C)[C@]12C [COLOSSOLACTONE E] | 15.3 µM
4 | CC(=O)OC[C@]12CC[C@H](O)C(C)(C)[C@@H]1CCC1=C2CC[C@]2(C)[C@@H]([C@H](C)C(O)C/C=C(/C)CO)CC[C@@]12C (stereo partly drawn) [COLOSSOLACTONE A] | 75.5 µM
5 | CC(=O)O[C@@H]1C[C@H]([C@H](C)[C@@H]2OC(=O)C(C)=C[C@H]2O)[C@@]2(C)CCC3=C(CC[C@@H]4C(=C3)C=CC(=O)OC4(C)C)[C@]12C [COLOSSOLACTONE VIII] | 58.3 µM
6 | COC(=O)CC[C@]1(COC(C)=O)C2=C(CC[C@H]1C(C)(C)O)[C@]1(C)CC[C@H]([C@H](C)[C@@H](C/C=C(/C)C(=O)O)OC(C)=O)[C@@]1(C)CC2 [COLOSSOLACTONE V] | 14.5 µM
7 | COC(=O)CC[C@]1(COC(C)=O)C2=C(CC[C@H]1C(C)(C)O)[C@]1(C)CC[C@H]([C@H](C)[C@H]3CC=C(C)C(=O)O3)[C@@]1(C)CC2 [COLOSSOLACTONE VII] | 24.7 µM
8 | CC1=CC[C@H]([C@@H](C)[C@H]2CC[C@@]3(C)C4=C(C=C5C=CC(=O)OC(C)(C)[C@@H]5CC4)CC[C@]23C)OC1=O [SCHISANLACTONE A] | 10.8 µM
